Several values for one entry are separate records, joined by “and”; a condition that tells them apart may be missing. Equal entries are not always repeated. Where two headings read alike, the source gives them in different places.
How the values were obtained:
[1] = system: Ba/F3-CD74-ROS1-WT xenograft; assay type: in vivo, mouse; details: for Tumor volume (average / SE): ROS1-WT xenograft, 100 mg/kg po
[2] = system: Ba/F3-CD74-ROS1 G2032R cells; experiment: CellTiter-Glo cell viability assay; assay type: cell-based, murine; details: Mus musculus
[3] = system: ROS1-rearranged NSCLC patients; details: cited from earlier work
[4] = Crizotinib 100 mg/kg po; for Body Weight Change(%) (average / SD): N 6
[5] = system: phospho-ROS1 in JFCR-168 cells; experiment: Immunoblot of ROS1 autophosphorylation; assay type: cell-based, human; details: 6 h
Experimental: (§1) Lysates were prepared using 1x SDS lysis buffer (1% SDS and 10% glycerol in 100 mM Tris–HCl [pH 7.5])[27]. […] All the primary antibody was used 1:1000 dilution for immunoblot analysis.

[6] = system: phospho-ROS1 in JFCR-165 cells; experiment: Immunoblot of ROS1 autophosphorylation; assay type: cell-based, human; details: 6 h
Experimental: as §1

[7] = system: phospho-ROS1 in MGH193-1B cells; experiment: Immunoblot of ROS1 autophosphorylation; assay type: cell-based, human; details: 6 h
Experimental: as §1

[8] = system: Ba/F3-CD74-ROS1 L2026M cells; experiment: CellTiter-Glo cell viability assay; assay type: cell-based, murine; details: Mus musculus
[9] = system: parental Ba/F3 cells (with IL-3); experiment: CellTiter-Glo cell viability assay; assay type: cell-based, murine; details: Mus musculus
[10] = system: Ba/F3-CD74-ROS1 L1951R cells; experiment: CellTiter-Glo cell viability assay; assay type: cell-based, murine; details: Mus musculus
[11] = system: HCC78xe3-SLC34A2-ROS1-G2032R xenograft; assay type: in vivo, mouse
[12] = Body weight of Ba/F3-CD74-ROS1-WT xenograft mice; assay type: in vivo, mouse; details: Crizotinib 100 mg/kg po; for Body Weight Change(%) (average / SD): N 6
[13] = system: SLC34A2-ROS1-G2032R overexpressing HCC78xe3 cells; experiment: Cell viability in 3D culture, CellTiter-Glo; assay type: cell-based; details: 72 h
[14] = system: Ba/F3-CD74-ROS1 D2033N cells; experiment: CellTiter-Glo cell viability assay; assay type: cell-based, murine; details: Mus musculus
[15] = system: HCC78xe3-SLC34A2-ROS1-WT xenograft; assay type: in vivo, mouse; design: Tumor volume LWW/2: unit not given here
[16] = system: Ba/F3-TPM3-NTRK1 cells (WT); experiment: CellTiter-Glo cell viability assay; assay type: cell-based, murine; details: Mus musculus, 72 h
[17] = system: Ba/F3-CD74-ROS1 cells (WT); experiment: CellTiter-Glo cell viability assay; assay type: cell-based, murine; details: Mus musculus
[18] = system: phospho-ROS1 in HCC78xe3-SLC34A2-ROS1-G2032R xenograft tumors; experiment: Immunoblot of xenograft tumors; assay type: in vivo, mouse; details: 3 days treatment
[19] = Crizotinib 100mg/kg, day 0, single mouse, in mm³
[20] = Crizotinib 100mg/kg, day 3, single mouse, in mm³
[21] = Crizotinib 100mg/kg, day 6, single mouse, in mm³
[22] = Crizotinib 100mg/kg, day 9, single mouse, in mm³
[23] = Crizotinib 100mg/kg, day 14, single mouse, in mm³
[24] = Crizotinib 100mg/kg, day 17, single mouse, in mm³
[25] = Crizotinib 100mg/kg, day 25, single mouse, in mm³
[26] = Crizotinib 100mg/kg, day 28, single mouse, in mm³
[27] = Crizotinib 100mg/kg, day 35, single mouse, in mm³
[28] = Crizotinib 100mg/kg, day 38, single mouse, in mm³
[29] = Crizotinib 100mg/kg, day 43, single mouse, in mm³
[30] = Crizotinib 100mg/kg, day 48, single mouse, in mm³
[31] = Crizotinib 100mg/kg, day 52, single mouse, in mm³
[32] = Crizotinib 100mg/kg, day 55, single mouse, in mm³

C[C@@H](Oc1cc(-c2cnn(C3CCNCC3)c2)cnc1N)c1c(Cl)ccc(F)c1Cl [crizotinib, reference compound]
Tumor shrinkage ([1]; 100 mg/kg once daily oral, 4 days): induced tumor shrinkage
Tumor volume (average / SE) ([1]; day 0, N 6): 289 mm3
Tumor volume (average / SE) ([1]; day 2, N 6): 151 mm3
Tumor volume (average / SE) ([1]; day 4, N 6): 44 mm3
Median progression-free survival [3]: 19.2 months
Overall response rate [3]: 72%
Body Weight Change(%) (average / SD) ([4]; day 0, average): 0.0%
Body Weight Change(%) (individual) ([4]; day 0, individual animals): 0%
Body Weight Change(%) (average / SD) ([4]; day 1, average): -1.6%
Body Weight Change(%) (average / SD) ([4]; day 2, average): -0.4%
Body Weight Change(%) (average / SD) ([4]; day 3, average): -0.3%
Body Weight Change(%) (average / SD) ([4]; day 4, average): 0.5%
Inhibition of autophosphorylation of ROS1 [5]: potently inhibited
Inhibition of autophosphorylation of ROS1 [6]: potently inhibited
Inhibition of autophosphorylation of ROS1 [7]: potently inhibited
IC50 ([9]; BaF3, 72 h): 812 nM
GI50 ([9]; BaF3, source data sheet): 798 nM
Tumor growth inhibition ([11]; 50 and 100 mg/kg once daily oral): highly resistant to crizotinib
Tumor volume LWW/2 [11, 19]: 154.5
Tumor volume LWW/2 [11, 20]: 162.2 and 132.5
Tumor volume LWW/2 [11, 21]: 164.7 and 110.8
Tumor volume LWW/2 [11, 22]: 136.2 and 132.2
Tumor volume LWW/2 [11, 23]: 155.8 and 119.8
Tumor volume LWW/2 [11, 24]: 174.0 and 154.2
Tumor volume LWW/2 ([11]; Crizotinib 100mg/kg, day 21, single mouse, in mm³): 274.9 and 242.5
Tumor volume LWW/2 [11, 25]: 238.7 and 300.2
Tumor volume LWW/2 [11, 26]: 247.6 and 347.9
Tumor volume LWW/2 ([11]; Crizotinib 100mg/kg, day 31, single mouse, in mm³): 309.9 and 336.1
Tumor volume LWW/2 [11, 27]: 418.2 and 509.9
Tumor volume LWW/2 [11, 28]: 526.9 and 595.5
Tumor volume LWW/2 [11, 29]: 740.1 and 596.0
Tumor volume LWW/2 [11, 30]: 745.2 and 699.2
Tumor volume LWW/2 [11, 31]: 846.3 and 852.5
Tumor volume LWW/2 [11, 32]: 921.5 and 834.7
Tumor volume LWW/2 ([11]; HCC78_Xe3_G2032R xenograft, BALB/c-nu mice, Crizotinib 50mg/kg, day 6, individual mice No. 7-12): 127.8 and 126.6
Tumor volume LWW/2 ([11]; HCC78_Xe3_G2032R xenograft, BALB/c-nu mice, Crizotinib 50mg/kg, day 17, individual mice No. 7-12): 278.8 and 148.6 and 98.2
Survival ([11]; Kaplan–Meier, 50 and 100 mg/kg): did not show any superiority to the control group
Body Weight Change(%) (average / SD) ([12]; day 0, average): 0.0%
Body Weight Change(%) (individual) ([12]; day 0, individual animals): 0%
Body Weight Change(%) (average / SD) ([12]; day 1, average): -2.0%
Body Weight Change(%) (individual) ([12]; day 1, individual animals): -1% and -1.4% and -4.2% and -2.7% and -0.5% and -2.3%
Body Weight Change(%) (average / SD) ([12]; day 2, average): -1.9%
Body Weight Change(%) (individual) ([12]; day 2, individual animals): -1.9% and -0.5% and -3.3% and -1.8%
Body Weight Change(%) (average / SD) ([12]; day 3, average): -1.7%
Body Weight Change(%) (individual) ([12]; day 3, individual animals): -2.4% and -1.4% and -4.2% and 2.3% and -2.8%
Body Weight Change(%) (average / SD) ([12]; day 4, average): -4.4%
Body Weight Change(%) (individual) ([12]; day 4, individual animals): -3.9% and -3.8% and -6.5% and -2.3% and -5.3% and -4.6%
Cell growth inhibition [13]: much higher than those to WT cells
Tumor volume LWW/2 [15, 19]: 172.7 and 167.7
Tumor volume LWW/2 [15, 20]: 103.2 and 100.2
Tumor volume LWW/2 [15, 21]: 67.8 and 77.3
Tumor volume LWW/2 [15, 22]: 39.9
Tumor volume LWW/2 [15, 23]: 13.2
Tumor volume LWW/2 [15, 24]: 18.9 and 19.3
Tumor volume LWW/2 [15, 25]: 5.2
Tumor volume LWW/2 [15, 26]: 6.5
Tumor volume LWW/2 [15, 27]: 8.7
Tumor volume LWW/2 [15, 28]: 5.4
Tumor volume LWW/2 [15, 29]: 4.9
Tumor volume LWW/2 [15, 30]: 7.2
Tumor volume LWW/2 [15, 31]: 15.8
Tumor volume LWW/2 [15, 32]: 16.3
Tumor volume LWW/2 ([15]; HCC78_Xe3_WT xenograft, BALB/c-nu mice, Crizotinib 50mg/kg, day 25, individual mice No. 7-12): 44.9 and 36.7 and 19.6
Tumor volume LWW/2 ([15]; HCC78_Xe3_WT xenograft, BALB/c-nu mice, Crizotinib 50mg/kg, day 43, individual mice No. 7-12): 75.9 and 129.8 and 100.2
IC50 [16]: 21.4 nM
Inhibition of phospho-ROS1 in tumors [18]: in SLC34A2-ROS1-WT-expressing HCC78xe3 cells only

— article PMC6688997 (Nature Communications, 2019)
